Data: US10253069B2, “Compositions and methods for regulating arterial tone” (University of Virginia Patent Foundation, priority 2012, dated 2019)

Legend:
[1] = tested on: thoracodorsal (TD) arteries; assay: Vasoreactivity of cannulated, pressurized TD arteries (pressure myograph) after siRNA transfection or PTU/L-NAME treatment; design: species or system mouse; details: for Contraction to 5-HT 50 nM post 15 min, % initial diameter: 15 minutes after stimulation, PTU 50 μM, n = 3; for PE CCRC Emax (% initial diameter): phenylephrine, TD arteries pretreated with PTU (50 μM) and/or L-NAME (100 μM)
Protocol: TD arteries (maximal internal diameter 261.7±4.2 μm) were isolated, cannulated in a pressure myograph (Danish MyoTechnology) and secured with 10.0 nylon sutures as described in^7. The TD arteries were placed in a circulating bath of Krebs-HEPES and perfused with Krebs-HEPES supplemented with 1% BSA. Arteries were maintained in a no flow state and pressurized at 80 mmHg as previously described^1. […] Acetylcholine (1 μM) was added to the bath to verify the integrity of the endothelium. […] At the end of the experiments, the solution was replaced by a calcium-free Krebs supplemented with 2 mM ethylenbis-(oxyethylenenitrolo) tetra-acetic acid (EGTA) and 10 μM sodium nitroprussiate in order to measure the maximal diameter. […] Internal diameters were calculated and results are expressed as a percentage of initial inner diameter (for PE dose responses) or percent dilation (for Ach dose responses). […] The TD arteries were isolated and cannulated as described above. The vessel lumen was perfused with Krebs-HEPES buffer supplemented with 1% BSA to flush out red blood cells and 100 μL of Nucleofector transfection reagent (HCAEC Nucleofector kit, Lonza) containing 10 nM control, Hb α or CytB5R3 siRNAs (see Table below) was perfused into the lumen. Arteries were then removed from the cannula and the ends ligated with 10-0 nylon sutures to maintain the transfection reagent and siRNA in the blood vessel lumen. Ligated arteries were then transferred to a transfection cuvette (Lonza) containing 100 μL Nucleofector transfection reagent and electroporated using the Nucleofector II Device (Lonza) using setting A-034. Transfected TDA were removed from cuvettes, re-cannulated and perfused with RPMI media+1% BSA to remove residual transfection reagent and siRNA. Arteries were cultured for 15-18 hours at 37° C. in RPMI+1% BSA and used for vasoreactivity studies or processed for immunofluorescence microscopy. To eliminate variability of transfection efficiency and vessel viability, one control siRNA vessel and one Hb α/CytBSR3 vessel were transfected daily.

TD arteries = assay: Nitric oxide diffusion assay, ex vivo TD arteries; design: species or system mouse; details: isolated TD arteries
Protocol: (§1) Anaerobic aqueous NO was generated by bubbling 100% helium into a beaker containing deionized water. Following 30 minutes, 99.5% NO′ gas was bubbled for an additional 40 minutes giving a final saturated concentration of approximately 1.7 mM.
(§2) Both ECs and SMCs were cultured on 12 mm Transwells as described above. After three days of co-culture, media was removed and replaced with 500 μL of Krebs buffer on each side of the Transwells and cells were allowed to equilibrate for 15 minutes. Next, 100 μL of anaerobic aqueous NO was added to the 500 μLs of Kreb's buffer on the EC side of the Transwell. After 5 minutes, 100 μL of Krebs buffer was immediately removed and injected into a Seivers Nitric Oxide Analyzer (NOA). Data was quantified using Origin Pro 6.0 by calculating the area under the peak over time. Differences between samples were expressed as μM change. For experiments on ex vivo samples, TD arteries were cannulated (as described above) in puddle of 100 μL of Krebs buffer created by parafilm. […] Data was quantified using Origin Pro 6.0 by calculating the area under the peak over time. Differences between samples were expressed as μM change.

[2] = tested on: VCCC (human coronary ECs and SMCs); assay: Nitric oxide diffusion assay, VCCC; format: cell-based
Protocol: as §1, §2

thoracodorsal arteries = assay: Pressure myography on thoracodorsal arteries, phenylephrine dose response with peptides; design: species or system mouse
[3] = tested on: eNOS phosphorylation on serine 1177; assay: Western blot of pS1177 eNOS in coronary endothelial cells; format: cell-based, human; details: 5 μmol/L peptide, 20 minutes
Protocol: (§3) Primary coronary endothelial cells (Lonza) were cultured on plastic 6-well dishes as previously described^9. For studies involving basal NO release, endothelial cells were incubated with 5 μmol/L of Scr X or Hb α X for 20 minutes followed by medium collection and nitrite measurements as described below. For bradykinin studies, coronary endothelial cells were grown to confluence followed by serum starvation overnight in a cocktail of Lonza EGM-2 medium supplemented with EGM-2 bullet kit and Opti MEM reduced growth medium using a ratio of 1:9 respectively. The next day, endothelial cells were incubated with Scr X or Hb α X peptide for 20 minutes followed by the addition of 10 μM bradykinin (Sigma) for 5 minutes followed by medium collection for nitrite measurements as described below.
Endothelial cells were harvested in lysis buffer, sonicated and subjected to electrophoresis using 10% Bis-Tris gels (Invitrogen) as previously described^13. Proteins were transferred to nitrocellulose, incubated with phospho-eNOS S1177 (BD Biosciences) or total eNOS (Sigma) and visualized and quantitated using Li-Cor Odyssey Imager as previously described^14.

[4] = tested on: human coronary endothelial cells; assay: Nitrite measurements from media of coronary endothelial cells; format: cell-based; details: unstimulated cells
Protocol: as §3
Quantitation of nitrite in culture medium was measured by chemiluminescence using a Sievers nitric oxide analyzer according to manufacturer's instructions. Quantitation of peaks was analyzed using Origin Pro 6.0 as previously described^9.

Compound | Contraction to 5-HT 50 nM post 15 min, % initial diameter ([1]; TD arteries) | PE CCRC Emax (% initial diameter) [1] | NO diffusion across the vessel wall (TD arteries) | NO diffusion in the VCCC [2] | other results
COC(=O)[C@@H](N)CCCNC(=N)N[N+](=O)[O-] [L-NAME, L-N^G-nitroarginine methyl ester] | 57.0 ± 3.29 n.s. % initial diameter | 62.6 ± 6.1 % initial diameter | – | – | –
[C-]#[O+] [carbon monoxide] | – | – | increased NO diffusion | increase in NO diffusion | –
CCCc1cc(=O)[nH]c(=S)[nH]1 [PTU, propylthiouracil] | 64.1 ± 4.5 n.s. % initial diameter | 91.4 ± 2.5 % initial diameter | increased NO diffusion | increased NO diffusion | Reversibility of the PTU effect with L-thyroxine supplementation ([1]; L-thyroxin 50 μM + PTU, 10 μM PE stimulation): not reversible; Basal tone ([1]; TD arteries): No difference in basal tone; Ach CCRC Emax (% Dilation) ([1]; acetylcholine, TD arteries pretreated with PTU): 94.9 ± 1.7 % Dilation; PE and Ach responses with the addition of L-NAME ([1]; plus NOS inhibitor L-NAME, TD arteries): comparable to control conditions
Scrambled control peptide FPYFSTKLTT (SEQ ID NO:40) with HIV-tat tag YGRKKRRQRRR at the N-terminus [Scr X] | – | – | – | – | Constriction in phenylephrine dose response curves (thoracodorsal arteries; compared to untreated arteries): no difference from control; Emax, vascular reactivity dose response curves (thoracodorsal arteries; phenylephrine dose response, thoracodorsal arteries perfused with peptide): 38.3 ± 2.4 % initial diameter; Basal eNOS phosphorylation on serine 1177 [3]: no differences; Accumulation of nitrite in the culture medium, basal [4]: no differences
